Calls of active or inactive are those of the source.
What was measured:
[1] = target: Heat shock protein HSP 90-alpha (Homo sapiens, UniProt P07900); type: functional, organism-based
[2] = microbe, parasite or virus in culture; type: functional; conditions: Mycobacterium tuberculosis
[3] = target: T1, Aminopeptidase N (Plasmodium falciparum FcB1/Columbia, UniProt O96935); assay: P. falciparum M1AAP inhibitors, biochemical, fluorogenic H-Leu-NHMec substrate, 1536-well (AID 1445); design: species or system Plasmodium falciparum 3D7, 3D7
T1 sequence (O96935 whole entry): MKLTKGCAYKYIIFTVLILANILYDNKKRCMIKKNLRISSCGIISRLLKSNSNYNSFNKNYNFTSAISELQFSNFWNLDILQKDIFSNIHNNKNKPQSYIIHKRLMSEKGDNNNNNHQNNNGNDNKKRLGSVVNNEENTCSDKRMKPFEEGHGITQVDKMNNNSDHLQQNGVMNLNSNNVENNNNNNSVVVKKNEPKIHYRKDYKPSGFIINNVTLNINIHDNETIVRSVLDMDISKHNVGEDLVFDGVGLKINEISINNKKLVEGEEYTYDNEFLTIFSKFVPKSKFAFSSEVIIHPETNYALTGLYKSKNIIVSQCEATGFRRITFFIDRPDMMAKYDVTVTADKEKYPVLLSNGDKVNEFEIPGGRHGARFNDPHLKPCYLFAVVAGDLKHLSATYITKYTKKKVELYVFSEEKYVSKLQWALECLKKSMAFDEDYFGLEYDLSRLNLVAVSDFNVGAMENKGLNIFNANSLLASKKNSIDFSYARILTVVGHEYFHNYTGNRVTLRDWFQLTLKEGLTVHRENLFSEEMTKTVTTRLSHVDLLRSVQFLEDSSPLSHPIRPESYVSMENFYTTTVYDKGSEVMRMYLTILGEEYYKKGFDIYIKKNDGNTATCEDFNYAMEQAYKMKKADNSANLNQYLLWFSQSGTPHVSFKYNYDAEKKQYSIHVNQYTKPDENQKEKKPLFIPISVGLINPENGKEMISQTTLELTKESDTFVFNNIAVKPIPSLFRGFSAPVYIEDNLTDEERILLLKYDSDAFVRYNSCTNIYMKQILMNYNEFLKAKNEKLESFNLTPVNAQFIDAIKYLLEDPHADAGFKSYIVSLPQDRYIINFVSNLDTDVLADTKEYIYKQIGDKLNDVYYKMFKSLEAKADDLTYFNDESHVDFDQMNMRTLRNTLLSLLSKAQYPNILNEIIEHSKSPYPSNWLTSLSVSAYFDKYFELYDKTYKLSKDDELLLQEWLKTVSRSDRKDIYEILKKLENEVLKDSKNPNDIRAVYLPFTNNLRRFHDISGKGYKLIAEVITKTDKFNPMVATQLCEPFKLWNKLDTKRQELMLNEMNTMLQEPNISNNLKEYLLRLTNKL

[4] = cells; type: functional, cell-based
[5] = cells; type: functional, cell-based; remark: listed apart in the source
[6] = off-target signal loss in HeLa-CEM21 co-culture – HeLa F-luc CTL cells, cherry-picked, counter-screen for HIV-1 Env fusion inhibitor project, dose response (AID 652040); type: functional, cell-based;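 also: potency for signal decrease marking cytotoxic or nonspecific inhibition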
[7] = cells; type: functional
[8] = growth suppression of PTEN-null colon cells, dose response, cell-based, HCT116 PTEN knockout (AID 1047); type: functional;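 also: HCT116 colon tumor cells with PTEN knocked out; cells exposed to compound for 60 hours before readout; potency for loss of cell viability measured by luminescence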
[9] = growth suppression of beta-catenin-knockout colon cells, dose response, cell-based, HCT116, human colon tumor (AID 1045); type: functional;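 also: HCT116 colon tumor cells with beta catenin knocked out; cells exposed to compound for 60 hours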
[10] = THP-1 cell cytotoxicity, dose response, cytotoxicity control for non-replicating M. tuberculosis project (AID 489025); type: functional
[11] = system: INS1; assay: beta cell apoptosis inhibitors, cytokine rescue, dose response, luminescence, retest (AID 449756); type: functional, cell-based; conditions: Rattus norvegicus;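 also: cell death triggered by IL-1 beta plus TNF-alpha plus IFN-gamma mixture; protective hits raise ATP signal compared with cytokine alone wells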
[12] = inhibitors of HIV Env-driven cell fusion, dose response, cherry-pick (AID 652057); type: functional, cell-based
[13] = inhibitors of clade B AD8 Env fusion, dose response, cell-based, cherry-pick (AID 652062); type: functional;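 also: luciferase signal from cell-cell fusion driven by HIV-1 clade B AD8 Env; potency is for inhibitors of fusion seen as a drop in luminescence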
[14] = system: Streptococcus sp. 'group A'; assay: growth inhibition of control SK(-) GAS strain, dose response, counter-screen for streptokinase expression inhibitor project, luminescence, kanamycin, BacTiterGlo, confirmation (AID 1900); type: functional, organism-based
[15] = system: Streptococcus; assay: Group A Streptococcus viability loss, dose response, counter-screen for streptokinase expression inhibitor project, luminescence, BacTiterGlo (AID 1915); type: functional, organism-based;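 also: potency for reduction of bacterial viability or growth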
[16] = target: T2, Streptokinase A (Streptococcus pyogenes serotype M1, UniProt P10520); assay: S. pyogenes streptokinase expression inhibitors, potency, dose response, plasminogen activation absorbance, OD405 (AID 1914); type: functional, Streptococcus pyogenes M1 GAS;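 also: secreted streptokinase activity via plasminogen activation per viability signal from cell pellet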
T2 sequence (P10520 whole entry): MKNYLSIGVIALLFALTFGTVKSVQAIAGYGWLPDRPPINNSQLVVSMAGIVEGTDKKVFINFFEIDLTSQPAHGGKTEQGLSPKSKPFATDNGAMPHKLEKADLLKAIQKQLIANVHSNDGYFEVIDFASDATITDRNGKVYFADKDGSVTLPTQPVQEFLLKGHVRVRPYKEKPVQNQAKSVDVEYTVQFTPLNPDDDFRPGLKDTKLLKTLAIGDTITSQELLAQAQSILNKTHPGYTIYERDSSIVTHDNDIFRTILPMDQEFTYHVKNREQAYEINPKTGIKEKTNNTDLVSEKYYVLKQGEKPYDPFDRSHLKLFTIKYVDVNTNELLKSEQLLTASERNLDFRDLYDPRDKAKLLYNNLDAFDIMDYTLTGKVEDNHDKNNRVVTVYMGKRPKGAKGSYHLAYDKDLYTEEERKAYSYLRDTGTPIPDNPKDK

[17] = target: T3, Leucine aminopeptidase (Plasmodium falciparum 3D7, UniProt Q8IL11); assay: P. falciparum M17LAP inhibitors, primary screen, biochemical, fluorogenic H-Leu-NHMec substrate, 1536-well (AID 1619); type: functional
T3 sequence (Q8IL11 whole entry): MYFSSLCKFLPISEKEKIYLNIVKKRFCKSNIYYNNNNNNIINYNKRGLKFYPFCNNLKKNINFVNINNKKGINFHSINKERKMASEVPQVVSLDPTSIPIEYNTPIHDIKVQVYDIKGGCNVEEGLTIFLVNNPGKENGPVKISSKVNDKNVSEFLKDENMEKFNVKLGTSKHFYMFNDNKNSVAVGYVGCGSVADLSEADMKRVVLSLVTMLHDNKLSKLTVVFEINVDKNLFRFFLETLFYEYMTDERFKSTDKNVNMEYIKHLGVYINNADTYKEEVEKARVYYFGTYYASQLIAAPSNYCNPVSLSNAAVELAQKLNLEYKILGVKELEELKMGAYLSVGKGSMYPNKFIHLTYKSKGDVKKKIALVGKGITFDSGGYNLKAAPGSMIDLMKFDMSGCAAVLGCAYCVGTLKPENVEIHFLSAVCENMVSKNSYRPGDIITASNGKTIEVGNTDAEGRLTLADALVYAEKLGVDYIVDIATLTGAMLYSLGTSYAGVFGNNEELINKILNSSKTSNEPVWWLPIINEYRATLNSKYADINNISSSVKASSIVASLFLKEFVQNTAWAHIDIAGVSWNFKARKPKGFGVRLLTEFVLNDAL

## O=C/C(=N\Nc1cccc(C(F)(F)F)c1)C(=O)c1ccccc1
[1]
  AC50: 6.15 µM (active)

## CN(CC(=O)Nc1ccccc1Br)C(=O)c1cccnc1Nc1cccc(C(F)(F)F)c1
[2]
  CC50: 19.9 µM (active)

## O=c1oc2c(CN3CCOCC3)c(O)c(Cl)cc2c2c1CCC2
[3]
  IC50: 42.9 µM (active)

## COc1ccc(NC2CCN(C3CC(=O)N(c4ccc(F)c(Cl)c4)C3=O)CC2)cc1 (configuration not stated)
[1]
  AC50: 4.11 µM (active)

## N#C[C-](C#N)c1nc2ccccc2nc1-[n+]1cccc(NC(=O)c2ccc(F)cc2)c1
[4]
  EC50: > 350 µM (not active)
[5]
  EC50: > 350 µM (not active)

## Cc1ccc(C2(C)NC(=O)N(CC(=O)NC(=O)NC(C)(C)C)C2=O)cc1 (configuration not stated)
[4]
  EC50: > 350 µM (not active)
[5]
  EC50: > 350 µM (not active)

## O=c1oc2c(CN3CCOCC3)c(O)c(Cl)cc2c2c1CCCC2
[3]
  IC50: 32.2 µM (active)

## Cn1ncc(Br)c1C(=O)OCC(=O)Nc1nc(-c2ccccc2)cs1
[4]
  EC50: > 350 µM (not active)
[5]
  EC50: 36.4 µM (active)

## CCOC(=O)c1c(C)[nH]c(C(=O)OCc2ccccc2F)c1C
[4]
  EC50: > 350 µM (not active)
[5]
  EC50: 93.5 µM (active)

## C(=NN=C1c2ccccc2-c2ccccc21)c1c[nH]c2ccccc12
[1]
  AC50: 5.17 µM (active)

## O=C(Nc1cccc(OC(=O)N2CCOCC2)c1)N1CCOCC1
[6]
  AC50: > 70 µM (inactive)

## CCN(CC)CCNCc1nc2ccccc2c(=O)n1-c1ccc(F)cc1
[4]
  EC50: > 350 µM (not active)
[5]
  EC50: > 350 µM (not active)

## CCCOc1ccc(-c2nc(C#N)c(NCCCn3ccnc3)o2)cc1
[7]
  IC50: 22.4 µM (active)
[8]
  EC50: 61.8 µM (active)
[9]
  EC50: 10.2 µM (active)
[10]
  CC50: 27.6 µM (active)

## Cn1cccc1C(=O)NC(=O)COC(=O)c1cc(S(=O)(=O)N2CCCCC2)ccc1Cl
[4]
  EC50: > 350 µM (not active)
[5]
  EC50: > 350 µM (not active)

## O=C(Nc1nccs1)c1ccc(COc2ccc(Cl)cc2)o1
[10]
  CC50: > 40 µM (active)

## Cc1cccc(-c2ncc(CN3CCC(CO)(CCCc4ccccc4)CC3)cn2)c1
[2]
  CC50: > 40 µM (active)

## CCOC(=O)CC1C(=O)NCCN1c1nc2c(C)cccn2c(=O)c1/C=C1\SC(=S)N(CC(C)C)C1=O (configuration not stated)
[3]
  IC50: 42.5 µM (active)

## CCOC(=O)/C(=C/c1ccc(OC(=O)c2ccccc2)cc1)C(C)=O
[1]
  AC50: 2.06 µM (active)

## N#Cc1c(-c2ccccc2)nc(SCC(=O)N(c2ccccc2)c2ccccc2)[nH]c1=O
[3]
  IC50: 34.3 µM (active)

## Cc1cccc(/C=N/NC(=O)c2c(-c3ccccc3)noc2C)c1O
[4]
  EC50: 23 µM (active)
[5]
  EC50: > 350 µM (not active)
[11]
  AC50: 1.5 µM (active)

## C[C@H]1CN([C@@H](C)CO)S(=O)(=O)c2ccc(C3=CCCC3)cc2O[C@H]1CN(C)Cc1ccccc1
[12]
  AC50: 18.5 µM (active)
[13]
  AC50: 25.1 µM (active)

## Cc1n[nH]c(C)c1CCOc1ccc(C(C)C)cc1
[7]
  IC50: 12.2 µM (active)
[14]
  EC50: 25.1 µM (active)
[15]
  EC50: 43.6 µM (active)
[10]
  CC50: > 40 µM (active)
[16]
  EC50: > 150 µM (not active)

## CCOC(=O)C1=C(Nc2ccc(C)cc2)S/C(=C\c2ccc(OCC(=O)O)c(OCC)c2)C1=O
[3]
  IC50: 48.6 µM (active)
[17]
  IC50: 15.6 µM (active)

## O=C(C[n+]1ccn(CCCNP2(=O)C=C(c3ccccc3)OC(c3ccccc3)=C2)c1)c1cccs1
[4]
  EC50: > 350 µM (not active)
[5]
  EC50: > 350 µM (not active)
